# Data taken from ChEMBL document CHEMBL3867472, “Discovery of benzofuran propanoic acid GPR120 agonists: From uHTS hit to mechanism-based pharmacodynamic effects” (Bioorg Med Chem Lett, 2016).
# Target: T1, Free fatty acid receptor 1 (Homo sapiens, UniProt O14842)
# Test: Agonist activity at human GPR40 measured after 60 mins by IP1-HTRF assay relative to basal level
# Type: functional
# Parameters: concentration or dose not given beside the values
# Details: not given
# T1 sequence (O14842 whole entry): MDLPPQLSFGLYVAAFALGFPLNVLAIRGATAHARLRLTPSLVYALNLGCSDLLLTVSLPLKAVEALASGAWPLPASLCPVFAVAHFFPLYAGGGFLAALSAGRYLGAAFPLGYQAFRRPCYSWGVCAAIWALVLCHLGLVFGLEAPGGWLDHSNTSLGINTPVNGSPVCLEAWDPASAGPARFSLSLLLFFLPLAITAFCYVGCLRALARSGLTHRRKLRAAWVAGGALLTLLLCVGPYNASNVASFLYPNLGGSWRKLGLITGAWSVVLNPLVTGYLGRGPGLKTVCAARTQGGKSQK
row,SMILES,Activity [%]
1,CCOc1ccc(Cl)c(-c2ccc(OCCCC(=O)O)cc2)c1,30
2,O=C(O)CCC1Cc2cc(-c3cc(OC(F)(F)F)ccc3F)ccc2O1 (stereo in doubt; 44) [listing 1 of 2 here],24
3,O=C(O)CCC1Cc2cc(-c3cc(OC(F)(F)F)ccc3F)ccc2O1 (stereo in doubt; 45) [listing 1 of 2 here],91

# Target: T2, Free fatty acid receptor 4 (Homo sapiens) (UniProt Q5NUL3)
# T2 sequence (whole entry): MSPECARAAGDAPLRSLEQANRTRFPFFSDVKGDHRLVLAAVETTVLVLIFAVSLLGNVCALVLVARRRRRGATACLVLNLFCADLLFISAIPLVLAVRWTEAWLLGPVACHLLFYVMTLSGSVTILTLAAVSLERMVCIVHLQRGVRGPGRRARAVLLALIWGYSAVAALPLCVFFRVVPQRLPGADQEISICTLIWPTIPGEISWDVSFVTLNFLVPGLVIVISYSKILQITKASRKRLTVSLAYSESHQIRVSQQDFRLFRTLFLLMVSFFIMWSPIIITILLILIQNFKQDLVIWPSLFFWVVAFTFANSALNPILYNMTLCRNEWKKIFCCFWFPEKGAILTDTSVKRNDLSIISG
# Test: Agonist activity at human GPR120 expressed in CHOK1 cells measured after 60 mins by IP1-HTRF assay relative to basal level
# Type: functional, cell-based
# Parameters: concentration or dose not given beside the values
# Details: CHO-K1
row,SMILES,Activity [%]
1,CCOc1ccc(Cl)c(-c2ccc(OCCCC(=O)O)cc2)c1,66
2,O=C(O)CCCOc1ccc(-c2ccccc2OC(F)(F)F)cc1,19
3,O=C(O)CCc1cc2cc(-c3cc(OC(F)(F)F)ccc3Cl)ccc2o1,69
4,CC(Cc1cc2cc(-c3cc(OC(F)(F)F)ccc3F)ccc2o1)C(=O)O (racemic),10
5,O=C(O)CCCOc1ccc(-c2ccccc2Oc2ccccc2)cc1,25
6,CC(CC(=O)O)c1cc2cc(-c3cc(OC(F)(F)F)ccc3F)ccc2o1 (racemic),24
7,Cc1cc(-c2cc(OC(F)(F)F)ccc2F)cc(C)c1OCCCC(=O)O,87
8,O=C(O)CCc1cc2cc(-c3cc(C(=O)C4CC4)ccc3F)ccc2o1,92
9,O=C(O)CCCOc1ccc(-c2cc(Oc3cccnc3)ccc2Cl)cc1,58
10,O=C(O)CCc1cc2cc(-c3cc(Cl)cc(OC4CCC4)c3)ccc2o1,50
11,O=C(O)CCC1Cc2cc(-c3cc(OC(F)(F)F)ccc3F)ccc2O1 (stereo in doubt; 44) [listing 1 of 2 here],101
12,O=C(O)CCCOc1ccc(-c2cc(OC3CC3)ccc2F)cc1,68
13,Cc1ccc(Oc2cccc(-c3ccc(OCCCC(=O)O)cc3)c2)cc1,77
14,O=C(O)CCC1Cc2cc(-c3cc(OC(F)(F)F)ccc3F)ccc2O1 (stereo in doubt; 45) [listing 1 of 2 here],49
15,Cc1cc(OCCCC(=O)O)ccc1-c1cc(OC(F)(F)F)ccc1Cl,32
16,O=C(O)CCCOc1ccc(-c2cc(OC(F)(F)F)ccc2Cl)c(F)c1,60
17,O=C(O)CCCOc1ccc(-c2ccccc2C(F)(F)F)cc1,31

# Target: T3, Free fatty acid receptor 4 (Mus musculus) (UniProt Q7TMA4)
# T3 sequence (whole entry): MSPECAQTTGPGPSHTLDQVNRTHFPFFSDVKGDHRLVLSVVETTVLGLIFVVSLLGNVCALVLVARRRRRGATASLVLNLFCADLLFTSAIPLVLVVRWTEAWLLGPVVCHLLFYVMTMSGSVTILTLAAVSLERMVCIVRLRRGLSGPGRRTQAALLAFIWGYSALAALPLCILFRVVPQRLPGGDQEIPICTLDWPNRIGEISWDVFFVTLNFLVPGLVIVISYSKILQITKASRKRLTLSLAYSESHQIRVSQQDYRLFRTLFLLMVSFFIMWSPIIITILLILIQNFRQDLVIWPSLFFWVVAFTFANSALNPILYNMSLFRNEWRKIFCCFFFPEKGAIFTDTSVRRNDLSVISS
# Test: Agonist activity at mouse GPR120 expressed in CHOK1 cells measured after 60 mins by IP1-HTRF assay relative to basal level
# Type: functional, cell-based
# Parameters: concentration or dose not given beside the values
# Details: CHO-K1
row,SMILES,Activity [%]
1,CCOc1ccc(Cl)c(-c2ccc(OCCCC(=O)O)cc2)c1,65
2,O=C(O)CCCOc1ccc(-c2ccccc2OC(F)(F)F)cc1,20
3,O=C(O)CCc1cc2cc(-c3cc(OC(F)(F)F)ccc3Cl)ccc2o1,76
4,CC(Cc1cc2cc(-c3cc(OC(F)(F)F)ccc3F)ccc2o1)C(=O)O (racemic),44
5,O=C(O)CCCOc1ccc(-c2ccccc2Oc2ccccc2)cc1,21
6,CC(CC(=O)O)c1cc2cc(-c3cc(OC(F)(F)F)ccc3F)ccc2o1 (racemic),57
7,Cc1cc(-c2cc(OC(F)(F)F)ccc2F)cc(C)c1OCCCC(=O)O,86
8,O=C(O)CCc1cc2cc(-c3cc(C(=O)C4CC4)ccc3F)ccc2o1,75
9,O=C(O)CCCOc1ccc(-c2cc(Oc3cccnc3)ccc2Cl)cc1,77
10,O=C(O)CCc1cc2cc(-c3cc(Cl)cc(OC4CCC4)c3)ccc2o1,55
11,O=C(O)CCC1Cc2cc(-c3cc(OC(F)(F)F)ccc3F)ccc2O1 (stereo in doubt; 44) [listing 1 of 2 here],68
12,O=C(O)CCCOc1ccc(-c2cc(OC3CC3)ccc2F)cc1,61
13,Fc1ccc(OC(F)(F)F)cc1-c1ccc2oc(CCc3nn[nH]n3)cc2c1,28
14,Cc1ccc(Oc2cccc(-c3ccc(OCCCC(=O)O)cc3)c2)cc1,83
15,O=C(O)CCC1Cc2cc(-c3cc(OC(F)(F)F)ccc3F)ccc2O1 (stereo in doubt; 45) [listing 1 of 2 here],65
16,Cc1cc(OCCCC(=O)O)ccc1-c1cc(OC(F)(F)F)ccc1Cl,29
17,O=C(O)CCCOc1ccc(-c2cc(OC(F)(F)F)ccc2Cl)c(F)c1,66
18,O=C(O)CCCOc1ccc(-c2ccccc2C(F)(F)F)cc1,15

# Target: T4, Free fatty acid receptor 4 (Homo sapiens, UniProt Q5NUL3)
# T4 sequence (Q5NUL3 whole entry): T2 sequence (whole entry)
# Test: Agonist activity at human GPR120 expressed in CHOK1 cells measured after 60 mins by IP1-HTRF assay
# Type: functional, cell-based, CHO-K1
# Details: not given
row,SMILES,EC50 [nM]
1,CCOc1ccc(Cl)c(-c2ccc(OCCCC(=O)O)cc2)c1,121
2,O=C(O)CCCOc1ccc(-c2cccc(OCc3ccccc3)c2)cc1,> 9950
3,O=C(O)CCCOc1ccc(-c2ccccc2OC(F)(F)F)cc1,3000
4,O=C(O)CCc1cc2cc(-c3cc(OC(F)(F)F)ccc3Cl)ccc2o1,102
5,O=C(O)CCC1Cc2cc(-c3cc(OC(F)(F)F)ccc3F)ccc2O1 (stereo in doubt; 44) [listing 2 of 2 here],77
6,CC(Cc1cc2cc(-c3cc(OC(F)(F)F)ccc3F)ccc2o1)C(=O)O (racemic),83
7,O=C(O)CCCOc1ccc(-c2ccccc2Oc2ccccc2)cc1,546
8,CC(CC(=O)O)c1cc2cc(-c3cc(OC(F)(F)F)ccc3F)ccc2o1 (racemic),819
9,Cc1cc(-c2cc(OC(F)(F)F)ccc2F)cc(C)c1OCCCC(=O)O,149
10,O=C(O)CCc1cc2cc(-c3cc(C(=O)C4CC4)ccc3F)ccc2o1,97
11,O=C(O)CCCOc1ccc(-c2cc(Oc3cccnc3)ccc2Cl)cc1,88
12,O=C(O)CCc1cc2cc(-c3cc(Cl)cc(OC4CCC4)c3)ccc2o1,188
13,O=C(O)CCCOc1ccc(-c2cc(OC3CC3)ccc2F)cc1,66
14,O=C(O)CCC1Cc2cc(-c3cc(OC(F)(F)F)ccc3F)ccc2O1 (stereo in doubt; 45) [listing 2 of 2 here],137
15,Fc1ccc(OC(F)(F)F)cc1-c1ccc2oc(CCc3nn[nH]n3)cc2c1,> 9950
16,Cc1ccc(Oc2cccc(-c3ccc(OCCCC(=O)O)cc3)c2)cc1,182
17,Cc1cc(OCCCC(=O)O)ccc1-c1cc(OC(F)(F)F)ccc1Cl,254
18,O=C(O)c1cc2cc(-c3cc(OC(F)(F)F)ccc3F)ccc2o1,> 9950
19,O=C(O)CCCOc1ccc(-c2cc(OC(F)(F)F)ccc2Cl)c(F)c1,186
20,O=C(O)CCCOc1ccc(-c2ccccc2C(F)(F)F)cc1,8170

# Target: T5, Free fatty acid receptor 4 (Mus musculus, UniProt Q7TMA4)
# T5 sequence (Q7TMA4 whole entry): T3 sequence (whole entry)
# Test: Agonist activity at mouse GPR120 expressed in CHOK1 cells measured after 60 mins by IP1-HTRF assay
# Type: functional, cell-based, CHO-K1
# Details: not given
row,SMILES,EC50 [nM]
1,CCOc1ccc(Cl)c(-c2ccc(OCCCC(=O)O)cc2)c1,32
2,O=C(O)CCCOc1ccc(-c2cccc(OCc3ccccc3)c2)cc1,> 9950
3,O=C(O)CCCOc1ccc(-c2ccccc2OC(F)(F)F)cc1,1870
4,O=C(O)CCc1cc2cc(-c3cc(OC(F)(F)F)ccc3Cl)ccc2o1,12
5,O=C(O)CCC1Cc2cc(-c3cc(OC(F)(F)F)ccc3F)ccc2O1 (stereo in doubt; 44) [listing 2 of 2 here],31
6,CC(Cc1cc2cc(-c3cc(OC(F)(F)F)ccc3F)ccc2o1)C(=O)O (racemic),70
7,O=C(O)CCCOc1ccc(-c2ccccc2Oc2ccccc2)cc1,418
8,CC(CC(=O)O)c1cc2cc(-c3cc(OC(F)(F)F)ccc3F)ccc2o1 (racemic),74
9,Cc1cc(-c2cc(OC(F)(F)F)ccc2F)cc(C)c1OCCCC(=O)O,47
10,O=C(O)CCc1cc2cc(-c3cc(C(=O)C4CC4)ccc3F)ccc2o1,22
11,O=C(O)CCCOc1ccc(-c2cc(Oc3cccnc3)ccc2Cl)cc1,34
12,O=C(O)CCc1cc2cc(-c3cc(Cl)cc(OC4CCC4)c3)ccc2o1,64
13,O=C(O)CCCOc1ccc(-c2cc(OC3CC3)ccc2F)cc1,32
14,O=C(O)CCC1Cc2cc(-c3cc(OC(F)(F)F)ccc3F)ccc2O1 (stereo in doubt; 45) [listing 2 of 2 here],106
15,Fc1ccc(OC(F)(F)F)cc1-c1ccc2oc(CCc3nn[nH]n3)cc2c1,316
16,Cc1ccc(Oc2cccc(-c3ccc(OCCCC(=O)O)cc3)c2)cc1,66
17,Cc1cc(OCCCC(=O)O)ccc1-c1cc(OC(F)(F)F)ccc1Cl,78
18,O=C(O)c1cc2cc(-c3cc(OC(F)(F)F)ccc3F)ccc2o1,> 9950
19,O=C(O)CCCOc1ccc(-c2cc(OC(F)(F)F)ccc2Cl)c(F)c1,36
20,O=C(O)CCCOc1ccc(-c2ccccc2C(F)(F)F)cc1,2190

# Target: T1, Free fatty acid receptor 1
# Test: Agonist activity at human GPR40 measured after 60 mins by IP1-HTRF assay
# Type: functional
# Details: not given
row,SMILES,EC50 [nM]
1,CCOc1ccc(Cl)c(-c2ccc(OCCCC(=O)O)cc2)c1,1130
2,O=C(O)CCCOc1ccc(-c2cccc(OCc3ccccc3)c2)cc1,> 9950
3,O=C(O)CCCOc1ccc(-c2ccccc2OC(F)(F)F)cc1,> 9950
4,O=C(O)CCc1cc2cc(-c3cc(OC(F)(F)F)ccc3Cl)ccc2o1,> 9950
5,O=C(O)CCC1Cc2cc(-c3cc(OC(F)(F)F)ccc3F)ccc2O1 (stereo in doubt; 44) [listing 2 of 2 here],1370
6,CC(Cc1cc2cc(-c3cc(OC(F)(F)F)ccc3F)ccc2o1)C(=O)O (racemic),> 9950
7,O=C(O)CCCOc1ccc(-c2ccccc2Oc2ccccc2)cc1,> 9950
8,CC(CC(=O)O)c1cc2cc(-c3cc(OC(F)(F)F)ccc3F)ccc2o1 (racemic),> 9950
9,Cc1cc(-c2cc(OC(F)(F)F)ccc2F)cc(C)c1OCCCC(=O)O,> 9950
10,O=C(O)CCc1cc2cc(-c3cc(C(=O)C4CC4)ccc3F)ccc2o1,> 9950
11,O=C(O)CCCOc1ccc(-c2cc(Oc3cccnc3)ccc2Cl)cc1,> 9950
12,O=C(O)CCc1cc2cc(-c3cc(Cl)cc(OC4CCC4)c3)ccc2o1,> 9950
13,O=C(O)CCCOc1ccc(-c2cc(OC3CC3)ccc2F)cc1,> 9950
14,O=C(O)CCC1Cc2cc(-c3cc(OC(F)(F)F)ccc3F)ccc2O1 (stereo in doubt; 45) [listing 2 of 2 here],1350
15,Fc1ccc(OC(F)(F)F)cc1-c1ccc2oc(CCc3nn[nH]n3)cc2c1,> 9950
16,Cc1ccc(Oc2cccc(-c3ccc(OCCCC(=O)O)cc3)c2)cc1,> 9950
17,Cc1cc(OCCCC(=O)O)ccc1-c1cc(OC(F)(F)F)ccc1Cl,> 9950
18,O=C(O)c1cc2cc(-c3cc(OC(F)(F)F)ccc3F)ccc2o1,> 9950
19,O=C(O)CCCOc1ccc(-c2cc(OC(F)(F)F)ccc2Cl)c(F)c1,> 9950
20,O=C(O)CCCOc1ccc(-c2ccccc2C(F)(F)F)cc1,> 9950
